Data on 54 compounds can be found in the PolyMetriX glass transition set.

As for `*C(=O)N1C(=S)N(C(=O)c2ccc3c(c2)C(=O)N(c2ccc(Oc4ccc(N5C(=O)c6ccc(*)cc6C5=O)cc4)cc2)C3=O)C(C)=C(C(=O)OCC)C1c1ccccc1` (repeat unit), the glass transition temperature is 155.00 °C.

For `*C(=O)Oc1c(C)cc(C(C)(C)c2cc(C)c(OC(=O)c3ccc4c(c3)C(=O)N(c3ccc(-c5ccc(N6C(=O)c7ccc(*)cc7C6=O)cc5C)c(C)c3)C4=O)c(C)c2)cc1C` (repeat unit), the glass transition temperature was 182.00 °C.

Take `*C(=O)Oc1ccc(C2(c3ccc(OC(=O)c4ccc5c(c4)C(=O)N(c4ccc(-c6ccc(N7C(=O)c8ccc(*)cc8C7=O)cc6C)c(C)c4)C5=O)cc3)C3CC4CC(C3)CC2C4)cc1` (repeat unit): the glass transition temperature worked out at 222.00 °C.

For `*C(=O)Oc1ccc(C2(c3ccc(OC(=O)c4ccc5c(c4)C(=O)N(c4ccc(-c6ccc(N7C(=O)c8ccc(*)cc8C7=O)cc6C)c(C)c4)C5=O)cc3)CCC(C(C)(C)C)CC2)cc1` (repeat unit), the glass transition temperature worked out at 217.00 °C.

In turn, `*C(=O)Oc1ccc(C2(c3ccc(OC(=O)c4ccc5c(c4)C(=O)N(c4ccc(-c6ccc(N7C(=O)c8ccc(*)cc8C7=O)cc6C)c(C)c4)C5=O)cc3)CCCCCCCCCCC2)cc1` (repeat unit) registered a glass transition temperature of 204.00 °C.

For `*C(=O)c1ccc(Oc2ccc(Oc3ccc(C(=O)c4ccc5c(c4)C(=O)N(c4ccc(N6C(=O)c7ccc(*)cc7C6=O)cc4)C5=O)cc3)cc2)cc1` (repeat unit), the glass transition temperature is 236.00 °C.

With `*CC(F)(F)/C(F)=C(/*)Cl` (repeat unit), the glass transition temperature was -17.00 °C.

`*CCCCCCCN1C(=O)c2ccc(-c3ccc(-c4ccc5c(c4)C(=O)N(*)C5=O)cc3)cc2C1=O` (repeat unit) showed a glass transition temperature of 135.00 °C.

The compound `*OC(COC(=O)c1ccc(-c2cc(CCCCCCCC)c(-c3ccc(C(*)=O)c(F)c3F)cc2CCCCCCCC)c(F)c1F)COc1ccc(/N=N/c2ccc(C#N)cc2)cc1` (repeat unit) came in with a glass transition temperature of 61.00 °C.

`*Oc1c(Cl)cc(C(C)(C)c2cc(Cl)c(OC(=O)c3ccc(OCCCCCCCCCCOc4ccc(C(*)=O)cc4)cc3)c(Cl)c2)cc1Cl` (repeat unit) displayed a glass transition temperature of 140.00 °C.

As for `*c1c(C)cc(C(C)(C)c2cc(C)c(S(*)(=O)=O)c(C)c2)cc1C` (repeat unit), the glass transition temperature was found to be 230.00 °C.

Turning to `*c1cc(C)c(*)s1` (repeat unit), the glass transition temperature was 114.20 °C.

As to `*c1cc(CCCCCCOC(=O)COc2ccccc2)c(*)s1` (repeat unit), the glass transition temperature is 50.00 °C.

Compound `*c1cc(CCOC(=O)C(C)Br)c(*)s1` (repeat unit) yielded a glass transition temperature of 49.00 °C.

The compound `*c1cc(CCOC(=O)NCCCC)c(*)s1` (repeat unit) showed a glass transition temperature of 67.50 °C.

Consider `*c1cc(CCOCCOC)c(*)[nH]1` (repeat unit), for which the glass transition temperature is -43.00 °C.

`*c1cc(OCCCC)cc(N2C(=O)c3ccc(Oc4ccc5c(c4)C(=O)N(*)C5=O)cc3C2=O)c1` (repeat unit) gave a glass transition temperature of 237.00 °C.

Consider `*c1cc(OCCCCCCCC)cc(N2C(=O)c3ccc(Oc4ccc5c(c4)C(=O)N(*)C5=O)cc3C2=O)c1` (repeat unit), for which the glass transition temperature worked out at 185.00 °C.

In turn, `*c1cc2c(cc1C)-c1cc(C)c(N3C(=O)c4ccc(-c5ccc6c(c5)C(=O)N(*)C6=O)cc4C3=O)cc1S2(=O)=O` (repeat unit) came in with a glass transition temperature of 490.00 °C.

`*c1ccc(-c2c(-c3ccc(-c4ccccc4)cc3)cc(-c3ccc(OCCCCCCOc4ccc(-c5cc(-c6ccc(-c7ccccc7)cc6)c(-c6ccc(-n7c(=O)c8cc9c(=O)n(*)c(=O)c9cc8c7=O)cc6)c(-c6ccc(-c7ccccc7)cc6)c5)cc4)cc3)cc2-c2ccc(-c3ccccc3)cc2)cc1` (repeat unit) showed a glass transition temperature of 128.50 °C.

Regarding `*c1ccc(-c2cc(-c3ccccc3)c3cc(-c4ccc5nc(*)cc(-c6ccccc6)c5c4)ccc3n2)cc1` (repeat unit), the glass transition temperature was 395.00 °C.

`*c1ccc(-c2cc(CCCCCCCC)c(-c3ccc(-c4ccc(-c5sc(-c6ccc([Si](*)(C)C)s6)cc5CCCCCCCC)s4)s3)s2)s1` (repeat unit) had a glass transition temperature of 31.00 °C.

Regarding `*c1ccc(-c2cc(CCCCCCCC)c(-c3ccc(-c4ccc(-c5sc(-c6ccc([Si](*)(CCCC)CCCC)s6)cc5CCCCCCCC)s4)s3)s2)s1` (repeat unit), the glass transition temperature was -1.00 °C.

Consider `*c1ccc(-c2cc(CCCCCCOC(=O)COc3ccccc3)c(*)s2)s1` (repeat unit), for which the glass transition temperature turned out to be 79.00 °C.

With `*c1ccc(-c2ccc(-c3ccc(-c4cc(-c5ccccc5)c5cc(Oc6ccc7nc(*)cc(-c8ccccc8)c7c6)ccc5n4)cc3)cc2)cc1` (repeat unit), the glass transition temperature was found to be 300.00 °C.

Regarding `*c1ccc(-c2ccc(-c3ccc(-c4ccc(-c5cc(-c6ccccc6)c6cc(Oc7ccc8nc(*)cc(-c9ccccc9)c8c7)ccc6n5)cc4)cc3)cc2)cc1` (repeat unit), the glass transition temperature was 310.00 °C.

`*c1ccc(-c2ccc(-c3ccc(-c4ccc(-c5ccc6c(c5)C(=O)N(c5ccc(Oc7ccc(N8C(=O)c9ccc(*)cc9C8=O)cc7)cc5)C6=O)cc4)cc3)cc2)cc1` (repeat unit) showed a glass transition temperature of 244.00 °C.

`*c1ccc(-c2ccc(-c3ccc(-n4c(=O)c5cc6c(=O)n(*)c(=O)c6c(C(F)(F)F)c5c4=O)cc3)cc2)cc1` (repeat unit) gave a glass transition temperature of 364.00 °C.

With `*c1ccc(-c2ccc(-c3ccc([Si](*)(C)C)s3)s2)s1` (repeat unit), the glass transition temperature turned out to be 45.00 °C.

Consider `*c1ccc(-c2ccc(-c3ccc([Si](CCCC)(CCCC)[Si](*)(CCCC)CCCC)s3)s2)s1` (repeat unit), for which the glass transition temperature is -5.00 °C.

With `*c1ccc(-c2ccc(-c3cnc4cc(Oc5ccc6nc(*)cnc6c5)ccc4n3)cc2)cc1` (repeat unit), the glass transition temperature turned out to be 390.00 °C.

In turn, `*c1ccc(-c2ccc(-c3nc4ccccc4c(-c4ccc(Oc5ccc(-c6c(-c7ccccc7)c(*)nc7ccccc67)cc5)cc4)c3-c3ccccc3)cc2)cc1` (repeat unit) gave a glass transition temperature of 345.00 °C.

With `*c1ccc(-c2ccc(-n3c(=O)c4c(C(F)(F)F)c5c(=O)n(*)c(=O)c5c(C(F)(F)F)c4c3=O)cc2C(F)(F)F)c(C(F)(F)F)c1` (repeat unit), the glass transition temperature amounted to 304.00 °C.

Regarding `*c1ccc(-c2ccc(-n3c(=O)c4cc5c(=O)n(*)c(=O)c5cc4c3=O)cc2F)c(F)c1` (repeat unit), the glass transition temperature was 398.00 °C.

For `*c1ccc(-c2ccc(N(*)c3ccc(C)cc3)cc2)cc1` (repeat unit), the glass transition temperature is 85.00 °C.

Consider `*c1ccc(-c2ccc(N3C(=O)c4ccc(Oc5ccc6c(c5)C(=O)N(*)C6=O)cc4C3=O)cc2C)c(C)c1` (repeat unit), for which the glass transition temperature is 325.00 °C.

With `*c1ccc(-c2ccc([Si](*)(C)C)s2)s1` (repeat unit), the glass transition temperature is 45.00 °C.

On to `*c1ccc(-c2ccc([Si](CCCC)(CCCC)[Si](*)(CCCC)CCCC)s2)s1` (repeat unit), for which the glass transition temperature is -20.00 °C.

For `*c1ccc(-c2ccc3c(c2)C(CCCCCC)(CCCCCC)c2cc(*)ccc2-3)cc1` (repeat unit), the glass transition temperature was 106.20 °C.

For `*c1ccc(-c2ccc3c(c2)C(CCCCCCBr)(CCCCCCBr)c2cc(*)ccc2-3)cc1` (repeat unit), the glass transition temperature came out at 122.00 °C.

On to `*c1ccc(-c2cnc3cc(-c4ccc5nc(*)cnc5c4)ccc3n2)cc1` (repeat unit), for which the glass transition temperature was 350.00 °C.

With `*c1ccc(-c2cnc3cc(Oc4ccc5nc(*)cnc5c4)ccc3n2)cc1` (repeat unit), the glass transition temperature was 306.00 °C.

With `*c1ccc(-c2cnc3ccc(-c4ccc5nc(*)cnc5c4)cc3n2)cc1` (repeat unit), the glass transition temperature is 376.00 °C.

For the compound `*c1ccc(-c2cnc3ccc(-c4ccc5ncc(*)nc5c4)cc3n2)cc1` (repeat unit), the glass transition temperature turned out to be 376.00 °C.

Consider `*c1ccc(-n2ccc(-c3ccc(-c4ccn(*)n4)cc3)n2)cc1` (repeat unit), for which the glass transition temperature is 75.00 °C.

`*c1ccc(C(c2ccc(N3C(=O)c4cc(-c5ccc([Si](C)(C)C)cc5)c(-c5cc6c(cc5-c5ccc([Si](C)(C)C)cc5)C(=O)N(*)C6=O)cc4C3=O)cc2)(C(F)(F)F)C(F)(F)F)cc1` (repeat unit) yielded a glass transition temperature of 365.00 °C.

Turning to `*c1ccc(C2(c3ccc(-c4cc(-c5ccccc5)c5cc(-c6ccc7nc(*)cc(-c8ccccc8)c7c6)ccc5n4)cc3)c3ccccc3C(=O)c3ccccc32)cc1` (repeat unit), the glass transition temperature turned out to be 417.00 °C.

In the case of `*c1ccc(Cc2ccc(N3C(=O)c4ccc(-c5ccc(-c6ccc(-c7ccc(-c8ccc(-c9ccc%10c(c9)C(=O)N(*)C%10=O)cc8)cc7)cc6)cc5)cc4C3=O)cc2)cc1` (repeat unit), the glass transition temperature was 244.00 °C.

Turning to `*c1ccc(Oc2ccc(-c3ccc(Oc4ccc(N5C(=O)c6cccc(Oc7c(C)cc(-c8cc(C)c(Oc9cccc%10c9C(=O)N(*)C%10=O)c(C)c8)cc7C)c6C5=O)cc4)cc3)cc2)cc1` (repeat unit), the glass transition temperature worked out at 290.00 °C.

Consider `*c1ccc(Oc2ccc(N3C(=O)c4cc(-c5ccc([Si](C)(C)C)cc5)c(-c5cc6c(cc5-c5ccc([Si](C)(C)C)cc5)C(=O)N(*)C6=O)cc4C3=O)cc2)cc1` (repeat unit), for which the glass transition temperature worked out at 348.00 °C.

For `*c1ccc2c(c1)C(=O)N(c1cc(OCCCC)cc(N3C(=O)c4ccc(C(*)(C(F)(F)F)C(F)(F)F)cc4C3=O)c1)C2=O` (repeat unit), the glass transition temperature was 246.00 °C.

As for `*c1ccc2c(c1)C(=O)N(c1cc(OCCCCCCCC)cc(N3C(=O)c4ccc(C(*)(C(F)(F)F)C(F)(F)F)cc4C3=O)c1)C2=O` (repeat unit), the glass transition temperature came to 195.00 °C.

On to `*c1ccc2c(c1)C(=O)N(c1cc(OCCCCCCCCCCCCCCCC)cc(N3C(=O)c4ccc(C(*)(C(F)(F)F)C(F)(F)F)cc4C3=O)c1)C2=O` (repeat unit), for which the glass transition temperature was 161.00 °C.

As to `*c1ccc2c(c1)C(=O)N(c1cc(OCCN(CC)c3ccc(/N=N/c4ccc([N+](=O)[O-])cc4)cc3)cc(N3C(=O)c4ccc(C(*)(C(F)(F)F)C(F)(F)F)cc4C3=O)c1)C2=O` (repeat unit), the glass transition temperature came out at 210.00 °C.
